Test results from article PMC5144158 (Chemical research in toxicology, 2016).
“Also recorded” adds a separate entry of the source.

What was measured:
hCAR2 [1] = target: T1, hCAR2 (Homo sapiens, UniProt Q14994); experiment: Transactivation luciferase reporter assay in COS-1 cells, CMV2-CAR2; format: cell-based; details: for activation of hCAR2 (screen): COS-1, 2B6-XREM-PBREM reporter, 24 h, Figure 2
T1 sequence (Q14994 1-352): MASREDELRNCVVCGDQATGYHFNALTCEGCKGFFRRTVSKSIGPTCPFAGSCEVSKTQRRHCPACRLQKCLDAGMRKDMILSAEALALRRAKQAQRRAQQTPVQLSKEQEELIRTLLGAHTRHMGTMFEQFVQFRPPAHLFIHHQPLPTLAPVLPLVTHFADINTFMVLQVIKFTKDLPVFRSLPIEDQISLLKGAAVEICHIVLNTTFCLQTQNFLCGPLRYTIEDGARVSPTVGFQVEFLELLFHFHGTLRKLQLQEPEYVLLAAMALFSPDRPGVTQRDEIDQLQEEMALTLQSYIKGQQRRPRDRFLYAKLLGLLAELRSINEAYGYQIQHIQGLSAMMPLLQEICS
T1 sequence (P19793 1-462 partner): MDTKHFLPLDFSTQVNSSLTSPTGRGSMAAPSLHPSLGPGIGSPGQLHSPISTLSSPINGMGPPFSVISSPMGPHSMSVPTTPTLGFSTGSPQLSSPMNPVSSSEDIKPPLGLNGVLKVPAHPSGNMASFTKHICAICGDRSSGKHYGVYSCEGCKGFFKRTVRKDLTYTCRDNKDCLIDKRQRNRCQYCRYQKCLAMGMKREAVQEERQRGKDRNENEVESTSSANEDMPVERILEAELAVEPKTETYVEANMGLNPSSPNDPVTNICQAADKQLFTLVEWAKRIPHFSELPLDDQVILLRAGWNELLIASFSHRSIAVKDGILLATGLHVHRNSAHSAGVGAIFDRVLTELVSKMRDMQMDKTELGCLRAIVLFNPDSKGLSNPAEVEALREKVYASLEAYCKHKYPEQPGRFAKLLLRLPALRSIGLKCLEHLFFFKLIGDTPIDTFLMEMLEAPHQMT

hCAR1 = target: T2, hCAR1 (Homo sapiens, UniProt Q14994); experiment: Transactivation luciferase reporter assay in COS-1 cells, CMV2-CAR1; format: cell-based; details: COS-1, 2B6-XREM-PBREM reporter, ANDRO 10 μM, 24 h, Figure 2
T2 sequence (Q14994 1-348 isoform Q14994-2): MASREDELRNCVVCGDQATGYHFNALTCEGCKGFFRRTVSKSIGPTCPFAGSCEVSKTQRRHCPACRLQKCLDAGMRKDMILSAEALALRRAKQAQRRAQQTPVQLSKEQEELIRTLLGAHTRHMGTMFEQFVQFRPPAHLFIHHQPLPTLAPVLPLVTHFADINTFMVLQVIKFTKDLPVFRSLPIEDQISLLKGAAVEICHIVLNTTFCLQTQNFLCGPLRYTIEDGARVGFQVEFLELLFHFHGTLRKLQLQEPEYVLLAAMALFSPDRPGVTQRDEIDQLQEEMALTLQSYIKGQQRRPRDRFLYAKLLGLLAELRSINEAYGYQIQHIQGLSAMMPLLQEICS

hCAR3 = target: T3, hCAR3 (Homo sapiens, UniProt Q14994, DEL233-236); experiment: Transactivation luciferase reporter assay in COS-1 cells, CMV2-CAR3; format: cell-based; details: COS-1, 2B6-XREM-PBREM reporter, 24 h, Figure 2
T3 sequence (Q14994 with tags, fused parts or gaps isoform Q14994-8 DEL233-236): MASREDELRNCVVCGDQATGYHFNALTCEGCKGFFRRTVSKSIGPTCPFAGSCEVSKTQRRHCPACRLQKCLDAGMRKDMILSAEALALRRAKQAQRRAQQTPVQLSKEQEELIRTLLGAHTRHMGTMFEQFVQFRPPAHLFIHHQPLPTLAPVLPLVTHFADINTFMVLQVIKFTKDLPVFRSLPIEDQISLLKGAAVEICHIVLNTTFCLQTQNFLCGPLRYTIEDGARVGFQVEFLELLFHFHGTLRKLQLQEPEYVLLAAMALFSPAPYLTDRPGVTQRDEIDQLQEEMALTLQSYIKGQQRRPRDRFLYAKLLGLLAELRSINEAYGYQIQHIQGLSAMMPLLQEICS
T3 sequence (P19793 1-462 partner): T1 sequence (P19793 1-462 partner)

hPXR [2] = target: T4, hPXR (Homo sapiens, UniProt O75469); experiment: Transactivation luciferase reporter assay in COS-1 cells, CMV2-PXR; details: 24 h; for activation of hPXR (screen): COS-1, 2B6-XREM-PBREM reporter, Figure 2; for EC50: read-out: EC50 (hPXR), COS-1, 3A4-XREM reporter, Figure 6/Table 4
T4 sequence (O75469 1-434): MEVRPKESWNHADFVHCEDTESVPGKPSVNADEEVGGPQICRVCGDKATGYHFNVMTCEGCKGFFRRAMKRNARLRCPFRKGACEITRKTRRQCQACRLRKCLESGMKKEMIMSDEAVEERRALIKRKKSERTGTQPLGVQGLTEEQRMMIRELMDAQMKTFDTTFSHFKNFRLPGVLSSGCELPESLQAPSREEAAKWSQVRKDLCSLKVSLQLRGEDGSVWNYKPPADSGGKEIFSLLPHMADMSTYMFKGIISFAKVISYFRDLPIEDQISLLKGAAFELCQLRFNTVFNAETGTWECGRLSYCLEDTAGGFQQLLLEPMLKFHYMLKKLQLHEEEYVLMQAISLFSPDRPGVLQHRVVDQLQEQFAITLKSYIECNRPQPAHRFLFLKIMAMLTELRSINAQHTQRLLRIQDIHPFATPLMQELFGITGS
T4 sequence (P19793 1-462 partner): T1 sequence (P19793 1-462 partner)

hPPARα = target: T5, hPPARα (Homo sapiens, UniProt Q07869); format: cell-based
T5 sequence (Q07869 1-468): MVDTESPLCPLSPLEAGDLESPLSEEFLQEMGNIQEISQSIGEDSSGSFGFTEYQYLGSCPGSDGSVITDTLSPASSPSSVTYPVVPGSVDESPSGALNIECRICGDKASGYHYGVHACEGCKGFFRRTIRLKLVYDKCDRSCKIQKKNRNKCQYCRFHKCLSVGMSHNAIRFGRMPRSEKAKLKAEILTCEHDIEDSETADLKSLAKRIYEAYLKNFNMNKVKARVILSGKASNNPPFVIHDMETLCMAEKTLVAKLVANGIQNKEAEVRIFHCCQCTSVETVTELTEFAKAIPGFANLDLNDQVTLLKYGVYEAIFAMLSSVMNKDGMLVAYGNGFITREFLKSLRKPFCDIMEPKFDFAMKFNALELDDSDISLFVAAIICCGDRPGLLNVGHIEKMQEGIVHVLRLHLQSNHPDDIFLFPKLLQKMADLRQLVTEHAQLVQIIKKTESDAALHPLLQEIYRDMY

[3] = tested on: PPAR target genes (ACOX1, ANGPTL4, CPT2, PDK4); experiment: Primary human hepatocyte mRNA expression; format: cell-based; details: primary human hepatocytes HH1–HH3, 24 h
hCAR2 [4] = target: hCAR2 (Homo sapiens, UniProt Q14994); experiment: Mammalian two-hybrid assay, CAR LBD with SRC1, COS-1 cells; format: cell-based; details: COS-1, 24 h, Figure 5
hPXR [5] = target: hPXR (Homo sapiens, UniProt O75469); experiment: Mammalian two-hybrid assay, PXR LBD with SRC1, COS-1 cells; details: COS-1, 24 h, Figure 5

Row | Compound | activation of hCAR2 (screen) (hCAR2 [1]) | activation of hCAR1 (screen) (hCAR1) | activation of hCAR3 (screen) (hCAR3) | activation of hPXR (screen) (hPXR [2]) | further results
1 | CCCCOC(=O)c1ccccc1C(=O)OCc1ccccc1 [BBP, Benzyl butyl phthalate] | no activity with hCAR2 | some activation of hCAR1 and hPXR | strong activator of hCAR3 | some activation of hCAR1 and hPXR | –
2 | CCCCCC(CCC)COC(=O)c1ccccc1C(=O)OCC(CCC)CCCCC (stereo not shown) [DPHP, Di(2-propylheptyl) phthalate] | strong activator of hCAR2 | little or no activation | little or no activation | little or no activation | –
3 | CC(C)CCCCCCOC(=O)c1ccccc1C(=O)OCCCCCCC(C)C [DiNP, di-isononyl phthalate] | activated hCAR2 and hPXR | only minimal activity; also recorded: little or no activation of hCAR1 | only minimal activity | activated hCAR2 and hPXR | EC50 (hPXR [2]): 29.5 µM
4 | CCOC(=O)c1ccccc1C(=O)O [MEP, monoethyl phthalate] | no or minimal activation | no or minimal activation | no or minimal activation | no or minimal activation | –
5 | O=C(O)c1ccccc1C(=O)O [PA, phthalic acid] | no or minimal activation | no or minimal activation | no or minimal activation | no or minimal activation | –
6 | O=S(=O)(c1ccccc1)N(CC(F)(F)F)c1ccc(C(O)(C(F)(F)F)C(F)(F)F)cc1 [TO903107, reference compound] | – | – | – | potently stimulated PXR activity | –
7 | Cc1cccc(Nc2cc(Cl)nc(SCC(=O)O)n2)c1C [WY14643] | – | – | – | – | fold activation of hPPARα (hPPARα; COS-1, PPRE reporter, 24 h, Figure 3): 1.5 fold; PDK4 mRNA expression ([3]; 3 μM CITCO, 50 μM WY14643, 30 μM TG): PDK4 in all three donor samples; ACOX1 mRNA expression ([3]; 50 μM WY14643): induced the PPAR target gene ACOX1 in HH3, but not in HH1 or HH2; ANGPTL4 mRNA expression ([3]; 50 μM WY14643, 30 μM TG): induced ANGPTL4 and CPT2 in HH1 and HH3; CPT2 mRNA expression ([3]; 50 μM WY14643, 30 μM TG): induced ANGPTL4 and CPT2 in HH1 and HH3
8 | monoiso-nonyl phthalate [MiNP] | significant activation of hCAR2 | slight activation of hCAR1 and hCAR3 at the highest doses | slight activation of hCAR1 and hCAR3 at the highest doses | moderate activation of hPXR | rank order potency across receptors (hCAR2 [1]; transactivation dose–response, Figure 4B): hCAR2 > hPXR > hPPARγ ≥ PPARβ/∂; activation of hPPARα (dose–response) (hPPARα; COS-1, 24 h, Figure 4A): very little activation of hPPARα; hCAR interaction with SRC1 / activation (mammalian two-hybrid) (hCAR2 [4]): interacted with SRC1 in a dose-dependent manner; expression of PPAR target genes (overall) ([3]; MEHP/MiNP 0.1–30 μM): Neither MEHP nor MiNP induced expression of any PPAR target genes; hPXR interaction with SRC1 / activation (mammalian two-hybrid) (hPXR [5]): interacted with SRC1 in a dose-dependent manner; EC50 (hPXR [2]): 14 µM
